The source of these data is patent EP0310305B1 (priority 1987, dated 1989).

pEC50: −log10 of the molar value. Read-outs that look alike come from different tables or passages of the source.

Data set [1] deals with Ileum. Nature of the data set: tissue or blood. The note with it: Rattus norvegicus.
Data set [2] concerns male rats (Crj Wister Rat; 180 - 240 g). Nature of the data set: animal or person. Format: in vivo. The note with it: for ED50: Rattus norvegicus, 0.5 h; for Entero-pooling ED₅₀: rat, in vivo, 30 min.
In data set [3] the test system is Male Crj Wister rats. Nature of the data set: animal or person. It counts as in vivo. The note with it: Rattus norvegicus, po, 6 h, read-out: Cathartic Effect ED50.
Data set [4] concerns healthy male volunteers. The note with it: human, in vivo, po.
Setting [5] is: read-out: Intestinal Contraction.
Setting [6] is: read-out: Intestinal Contrac-tion.

For the compound `CCCCC[C@H](O)/C=C/[C@@H]1[C@@H](C/C=C\CCCC(=O)O)[C@@H](O)C[C@H]1O` [Test Drug 19, PGF₂α, reference compound], the pEC50 in data set [1] (setting [5]) was over 6.00. Moreover, in data set [2] (read-out: Entero-pooling ED₅₀), the ED50 was 4.9 mg/kg.

In the case of `CCCCC(F)C(=O)/C=C/[C@H]1[C@H](O)CC(=O)[C@@H]1C/C=C\CCCC(=O)O` (stereo partly shown) [Test Drug 6, 15-keto-16R,S-fluoro-PGE₂], the pEC50 in data set [1] (setting [5]) is 4.00 to 6.00. Besides, the ED50 in data set [2] (read-out: Enteropooling ED₅₀) turned out to be 0.002 mg/kg.

As to `CCCCC(F)(F)C(=O)CC[C@@H]1[C@@H](C/C=C\CCCC(=O)OC)[C@@H](O)C[C@H]1O` [Test Drug 14, 13,14-dihydro-15-keto-16,16-difluoro-PGF₂α methyl ester], the pEC50 in data set [1] (setting [5]) is 4.00 to 6.00. Moreover, the ED50 in data set [2] (read-out: Entero-pooling ED₅₀) came out at 0.2 mg/kg.

Regarding `CCCCC(F)(F)C(=O)CC[C@H]1[C@H](O)CC(=O)[C@@H]1C/C=C\CCCC(=O)OC` [Test Drug 8, 13,14-dihydro-15-keto-16,16-difluoro-PGE₂ methyl ester], in data set [1] (setting [5]), the pEC50 was 4.00 to 6.00. The ED50 in data set [2] (read-out: Enteropooling ED₅₀) was determined as 0.0002 mg/kg.

As for `CCCCCC(F)C(=O)CC[C@H]1[C@H](O)CC(=O)[C@@H]1C/C=C\CCCC(=O)OC` (stereo partly shown) [Test Drug 5, 13,14-dihydro-15-keto-16R,S-fluoro-20-methyl-PGE₂ methyl ester], the pEC50 in data set [1] (setting [5]) was 4.00 to 6.00. For the same compound, in data set [2] (read-out: Enteropooling ED₅₀), the ED50 is 0.002 mg/kg.

With `CCCCC(F)C(=O)CC[C@@H]1[C@@H](C/C=C\CCCC(=O)OC)[C@@H](O)C[C@H]1O` (stereo partly drawn) [Test Drug 13, 13,14-dihydro-15-keto-16R,S-fluoro-PGF₂α methyl ester], in data set [2] (read-out: Entero-pooling ED₅₀), the ED50 amounted to 0.14 mg/kg.

With `CCCCCC(F)C(=O)CC[C@@H]1[C@@H](C/C=C\CCCC(=O)OC)[C@@H](O)C[C@H]1O` (stereo partly drawn) [Test Drug 15, 13,14-dihydro-15-keto-16R,S-fluoro-20-methyl-PGF₂α methyl ester], the pEC50 in data set [1] (setting [5]) was 4.00 to 6.00. Besides, the ED50 in data set [2] (read-out: Entero-pooling ED₅₀) came out at 0.3 mg/kg.

Turning to `CCCCC[C@H](O)/C=C/[C@H]1[C@H](O)CC(=O)[C@@H]1C/C=C\CCCC(=O)O` [Test Drug 1, Prostaglandin E2, reference compound], in data set [1] (setting [6]), the pEC50 is over 6.00. Moreover, the ED50 was over 10 mg/kg in data set [3] and 0.13 mg/kg in data set [2] (read-out: Entero-pooling ED50).

`CCCCCCC(F)C(=O)CC[C@@H]1[C@@H](C/C=C\CCCC(=O)O)[C@@H](O)C[C@H]1O` (stereo partly drawn) [Test Drug 16, 13,14-dihydro-15-keto-20-ethyl-16R,S-fluoro-PGF₂α]: the pEC50 in data set [1] (setting [5]) was under 4.00. Further, the ED50 in data set [2] (read-out: Entero-pooling ED₅₀) was 0.7 mg/kg.

Turning to `CCCCC[C@H](O)/C=C/[C@H]1C=CC(=O)[C@@H]1CCCCCCC(=O)O` [Test Drug 11, PGA₁, reference compound], the ED50 in data set [2] (read-out: Entero-pooling ED₅₀) is 4 mg/kg.

For `CCCCC(F)C(=O)/C=C/[C@H]1[C@H](O)CC(=O)[C@@H]1C/C=C\CCCC(=O)OC` (stereo partly shown) [Test Drug 7, 15-keto-16R,S-fluoro-PGE₂ methyl ester], the pEC50 in data set [1] (setting [5]) is 4.00 to 6.00. Moreover, the ED50 in data set [2] (read-out: Enteropooling ED₅₀) came out at 0.002 mg/kg.

With “13,14-dihydro-15-keto-16R,S-fluoro-Δ²-PGA₁ methyl ester [Test Drug 10]”, in data set [2], the “Entero-pooling ED₅₀” value is recorded as 0.2 mg/kg.

As to `CCCCC(F)C(=O)CC[C@H]1[C@H](O)CC(=O)[C@@H]1C/C=C\CCCC(=O)OCC` (stereo partly shown) [Test Drug 4, 13,14-dihydro-15-keto-16R,S-fluoro-PGE₂ ethyl ester], the pEC50 in data set [1] (setting [5]) was 4.00 to 6.00. Further, in data set [2] (read-out: Enteropooling ED₅₀), the ED50 was determined as 0.002 mg/kg.

Turning to `CCCCCCC(F)C(=O)CC[C@@H]1[C@@H](C/C=C\CCCC(=O)OC)[C@@H](O)C[C@H]1O` (stereo partly drawn) [Test Drug 17, 13,14-dihydro-15-keto-20-ethyl-16R,S-fluoro-PGF₂α methyl ester], the pEC50 in data set [1] (setting [5]) was 4.00 to 6.00. For the same compound, the ED50 in data set [2] (read-out: Entero-pooling ED₅₀) came to 0.6 mg/kg.

In the case of “13,14-dihydro-15-keto-16R,S-fluoro-Δ²-PGA₁ [Test Drug 9]”, the “Entero-pooling ED₅₀” value in data set [2] is listed as 0.2 mg/kg.

Consider `CCCCC(F)C(=O)CC[C@@H]1[C@@H](C/C=C\CCCC(=O)O)[C@@H](O)C[C@H]1O` (stereo partly drawn) [Test Drug 12, 13,14-dihydro-15-keto-16R,S-fluoro-PGF₂α], for which the pEC50 in data set [1] (setting [5]) is under 4.00. In addition, the ED50 in data set [2] (read-out: Entero-pooling ED₅₀) was found to be 0.2 mg/kg.

As to `CCCCC(F)C(=O)CC[C@H]1[C@H](O)CC(=O)[C@@H]1C/C=C\CCCC(=O)OC` (stereo partly shown) [Test Drug 2, 13,14-dihydro-15-keto-16R,S-fluoro-prostaglandin], in data set [1] (setting [6]), the pEC50 is 4.00 to 6.00. For the same compound, in data set [4], the “abnormality or malaise in belly at 8 hours after administration” value is on record as “no particular abnormality nor malaise in belly”, the clinical observation result is reported as “no abnormality” and the other side effects result was “no one complained of other side effects such as bellyache”. In data set [3], the ED50 is 0.8 mg/kg. Besides, in data set [2] (read-out: Entero-pooling ED50), the ED50 was found to be 0.003 mg/kg.

Regarding `CCCCC(F)C(=O)/C=C/[C@@H]1[C@@H](C/C=C\CCCC(=O)OC)[C@@H](O)C[C@H]1O` (stereo partly drawn) [Test Drug 18, 15-keto-16-R,S-fluoro-PGF₂α methyl ester], the pEC50 in data set [1] (setting [5]) is under 4.00. For the same compound, in data set [2] (read-out: Entero-pooling ED₅₀), the ED50 was determined as 0.15 mg/kg.
